The text below walks through data of patent publication US11447493B2 (Kinnate Biopharma Inc., priority 2018, dated 2022).

One test addresses CDK12 wt/CycK (Homo sapiens (Human), UniProt Q9NYV4). Put plainly: Radiometric protein kinase assay (33PanQinase), Assay Condition A (thiol containing). The settings on record: thiol containing (1.2 mM DTT), ATP 0.3 μM. It counts as biochemical. In outline: (§1)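 Recombinant human kinases assayed radiometrically (33PanQinase) with 33P-ATP incorporation into substrate, 60 min at 30° C, thiol-containing buffer, 1% DMSO final. Ten concentrations from 1×10^−04M to 3×10^−09M tested in singlicate. Residual activity normalized to no-enzyme and no-inhibitor controls; IC50 by least-squares fit.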

For another test, the target named is CDK12 (Homo sapiens (Human), UniProt Q9NYV4). In words: Radiometric protein kinase assay (33PanQinase), Assay Condition B (thiol-free). In kind it is biochemical. The settings on record: thiol-free (1 mM TCEP). As to the method: The IC50 profile of compounds was determined using one protein kinase in a customized, thiol free assay. […] Prior to testing, the 1×10^−03 M stock solutions in column 2 of the master plates were subjected to a serial, semi-logarithmic dilution using 100% DMSO as a solvent. […] Column 1 and 7 were filled with 100% DMSO as controls. Subsequently, 2×10 microliter from each well of the serial diluted copy plates were aliquoted with a 96 channel pipettor into two identical sets of “compound dilution plates”. All plates were barcoded for automated identification and tracking purposes. […] All compounds were stored as powder until being solubilized in DMSO. Solubilized compounds were stored as 1×10^−02M/100% DMSO stock solutions. Prior to the assay process, 90 microliters of H2O were added to each well of a set of compound dilution plates. To minimize potential precipitation, the H2O was added to each plate only a few minutes before the transfer of the compound solutions into the assay plates. Each plate was shaken thoroughly, resulting in compound dilution plates with a final of 10% DMSO. For each assay, 5 microliters of solution from each well of the compound dilution plates/10% DMSO were transferred into the assay plate. The final volume of the assay was 50 μl. All compounds were tested at 10 final assay concentrations in the range from 1×10^−05M to 3×10^−10 M, in singlicate. The final DMSO concentration in the reaction cocktails was 1% in all cases. […] This was done so there would be no interference with the key cysteines in the proteins of interest.
For data analysis, the median value of the counts in column 1 (n=8) of each assay plate was defined as “low control”. This value reflects unspecific binding of radioactivity to the plate in the absence of a protein kinase but in the presence of the substrate. The median value of the counts in column 7 of each assay plate (n=8) was taken as the “high control”, i.e. full activity in the absence of any inhibitor. The difference between high and low control was taken as 100% activity. As part of the data evaluation the low control value from a particular plate was subtracted from the high control value as well as from all 80 “compound values” of the corresponding plate. The residual activity (in %) for each well of a particular plate was calculated by using the following formula: Res. Activity (%)=100×[(cpm of compound−low control)/(high control−low control)]
The fitting method used was a least-squares fit.

For another test, the target named is CDK2/CycA2 (Homo sapiens (Human), UniProt P24941). Put plainly: Radiometric protein kinase assay (33PanQinase), Assay Condition A (thiol containing). The settings on record: thiol containing (1.2 mM DTT), ATP 0.3 μM. It counts as biochemical. In outline:
as §1

The next test deals with CDK2 (Homo sapiens (Human), UniProt P24941). Put plainly: Radiometric protein kinase assay (33PanQinase), Assay Condition B (thiol-free). In kind it is biochemical. The settings on record: thiol-free (1 mM TCEP). Here is the method:
The IC50 profile of compounds was determined using one protein kinase in a customized, thiol free assay. […] Prior to testing, the 1×10^−03 M stock solutions in column 2 of the master plates were subjected to a serial, semi-logarithmic dilution using 100% DMSO as a solvent. […] Column 1 and 7 were filled with 100% DMSO as controls. Subsequently, 2×10 microliter from each well of the serial diluted copy plates were aliquoted with a 96 channel pipettor into two identical sets of “compound dilution plates”. All plates were barcoded for automated identification and tracking purposes. […] All compounds were stored as powder until being solubilized in DMSO. Solubilized compounds were stored as 1×10^−02M/100% DMSO stock solutions. Prior to the assay process, 90 microliters of H2O were added to each well of a set of compound dilution plates. To minimize potential precipitation, the H2O was added to each plate only a few minutes before the transfer of the compound solutions into the assay plates. Each plate was shaken thoroughly, resulting in compound dilution plates with a final of 10% DMSO. For each assay, 5 microliters of solution from each well of the compound dilution plates/10% DMSO were transferred into the assay plate. The final volume of the assay was 50 μl. All compounds were tested at 10 final assay concentrations in the range from 1×10^−05M to 3×10^−10 M, in singlicate. The final DMSO concentration in the reaction cocktails was 1% in all cases. […]
For data analysis, the median value of the counts in column 1 (n=8) of each assay plate was defined as “low control”. This value reflects unspecific binding of radioactivity to the plate in the absence of a protein kinase but in the presence of the substrate. […] The residual activity (in %) for each well of a particular plate was calculated by using the following formula: Res. Activity (%)=100×[(cpm of compound−low control)/(high control−low control)]
The residual activities for each concentration and the compound IC50 values were calculated using Quattro Workflow V3.1.1 (Quattro Research GmbH, Munich, Germany; www.quattro-research.com). […]

Test [1] concerns panel of 1,151 cancer cell lines. The note with it: in 52% of a panel of 1,151 cancer cell lines (Kwiatkowski, 2014); cited from earlier work.
The target in another test is CDK7/CycH/MAT1 (Homo sapiens (Human), UniProt P50613). Put plainly: Radiometric protein kinase assay (33PanQinase), Assay Condition A (thiol containing). It counts as biochemical. The settings on record: thiol containing (1.2 mM DTT), ATP 3.0 μM. In outline: as §1

Each structure is given as a SMILES string. Some results are limits rather than exact numbers.

Sequence of CDK12 (Q9NYV4 whole entry): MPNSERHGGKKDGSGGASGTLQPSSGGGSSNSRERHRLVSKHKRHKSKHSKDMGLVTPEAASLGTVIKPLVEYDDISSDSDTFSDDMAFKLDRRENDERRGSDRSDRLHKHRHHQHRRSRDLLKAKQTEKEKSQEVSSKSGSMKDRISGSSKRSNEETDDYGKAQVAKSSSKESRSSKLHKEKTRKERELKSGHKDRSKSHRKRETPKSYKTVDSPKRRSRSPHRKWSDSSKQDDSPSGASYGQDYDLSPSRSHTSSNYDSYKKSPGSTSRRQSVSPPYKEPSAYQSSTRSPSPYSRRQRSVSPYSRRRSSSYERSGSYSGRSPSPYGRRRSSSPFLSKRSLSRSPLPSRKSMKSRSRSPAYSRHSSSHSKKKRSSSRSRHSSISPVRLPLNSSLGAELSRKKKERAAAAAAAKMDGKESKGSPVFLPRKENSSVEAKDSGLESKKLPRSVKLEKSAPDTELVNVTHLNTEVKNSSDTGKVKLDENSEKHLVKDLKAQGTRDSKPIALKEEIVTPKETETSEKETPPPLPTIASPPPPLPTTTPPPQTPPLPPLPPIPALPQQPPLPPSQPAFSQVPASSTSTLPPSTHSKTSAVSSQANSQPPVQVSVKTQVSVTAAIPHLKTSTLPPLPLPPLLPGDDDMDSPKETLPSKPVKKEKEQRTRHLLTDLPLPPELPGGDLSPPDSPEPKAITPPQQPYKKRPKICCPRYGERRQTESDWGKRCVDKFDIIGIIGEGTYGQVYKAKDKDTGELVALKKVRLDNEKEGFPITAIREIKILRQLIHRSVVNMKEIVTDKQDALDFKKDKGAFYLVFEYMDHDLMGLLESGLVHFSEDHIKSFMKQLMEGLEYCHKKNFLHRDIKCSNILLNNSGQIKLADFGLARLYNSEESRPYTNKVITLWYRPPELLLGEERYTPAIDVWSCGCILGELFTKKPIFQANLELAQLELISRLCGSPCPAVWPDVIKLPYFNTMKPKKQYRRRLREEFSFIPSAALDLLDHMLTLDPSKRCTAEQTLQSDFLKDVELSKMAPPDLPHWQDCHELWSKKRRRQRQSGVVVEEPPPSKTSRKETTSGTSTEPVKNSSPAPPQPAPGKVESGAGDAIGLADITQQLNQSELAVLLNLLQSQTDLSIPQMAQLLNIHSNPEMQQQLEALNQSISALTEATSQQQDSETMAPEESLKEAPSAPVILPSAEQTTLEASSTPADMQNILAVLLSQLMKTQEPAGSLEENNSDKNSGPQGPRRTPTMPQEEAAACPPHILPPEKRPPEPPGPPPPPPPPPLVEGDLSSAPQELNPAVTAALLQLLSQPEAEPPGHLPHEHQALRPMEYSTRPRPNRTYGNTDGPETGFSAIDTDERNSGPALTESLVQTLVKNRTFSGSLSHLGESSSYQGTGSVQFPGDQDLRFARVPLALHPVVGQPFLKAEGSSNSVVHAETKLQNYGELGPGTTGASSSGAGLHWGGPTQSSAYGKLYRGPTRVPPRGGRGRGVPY
Sequence of CDK12 (O75909 whole entry partner): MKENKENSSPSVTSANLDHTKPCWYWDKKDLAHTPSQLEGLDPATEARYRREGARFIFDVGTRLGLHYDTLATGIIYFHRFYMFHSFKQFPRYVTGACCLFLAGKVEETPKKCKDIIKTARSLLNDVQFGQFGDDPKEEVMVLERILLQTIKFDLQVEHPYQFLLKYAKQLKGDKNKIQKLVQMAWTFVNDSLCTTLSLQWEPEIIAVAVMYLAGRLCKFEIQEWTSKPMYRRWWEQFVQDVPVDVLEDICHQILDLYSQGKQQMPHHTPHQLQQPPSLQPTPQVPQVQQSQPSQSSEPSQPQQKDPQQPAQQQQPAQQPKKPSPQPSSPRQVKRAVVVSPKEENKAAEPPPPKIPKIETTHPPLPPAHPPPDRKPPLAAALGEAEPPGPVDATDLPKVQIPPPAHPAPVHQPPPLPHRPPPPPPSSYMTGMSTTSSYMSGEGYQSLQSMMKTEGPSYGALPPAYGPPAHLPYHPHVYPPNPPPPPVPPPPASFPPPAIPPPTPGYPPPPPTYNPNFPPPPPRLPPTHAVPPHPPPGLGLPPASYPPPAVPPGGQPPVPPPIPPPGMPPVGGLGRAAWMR
Sequence of CDK12 wt/CycK (Q9NYV4 whole entry): as the sequence (Q9NYV4 whole entry) above
Sequence of CDK12 wt/CycK (O75909 whole entry partner): as the sequence (O75909 whole entry partner) above
Sequence of CDK7/CycH/MAT1 (P50613 whole entry): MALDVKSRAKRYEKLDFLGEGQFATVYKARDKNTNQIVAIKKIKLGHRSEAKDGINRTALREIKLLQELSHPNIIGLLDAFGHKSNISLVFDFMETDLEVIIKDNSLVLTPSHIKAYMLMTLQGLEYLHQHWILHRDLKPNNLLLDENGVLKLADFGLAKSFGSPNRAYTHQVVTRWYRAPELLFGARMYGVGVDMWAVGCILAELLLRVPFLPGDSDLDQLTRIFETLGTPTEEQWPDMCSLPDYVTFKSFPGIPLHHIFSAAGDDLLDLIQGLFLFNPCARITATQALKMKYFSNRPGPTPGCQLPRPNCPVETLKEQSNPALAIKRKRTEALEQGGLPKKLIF
Sequence of CDK7/CycH/MAT1 (P51946 whole entry partner): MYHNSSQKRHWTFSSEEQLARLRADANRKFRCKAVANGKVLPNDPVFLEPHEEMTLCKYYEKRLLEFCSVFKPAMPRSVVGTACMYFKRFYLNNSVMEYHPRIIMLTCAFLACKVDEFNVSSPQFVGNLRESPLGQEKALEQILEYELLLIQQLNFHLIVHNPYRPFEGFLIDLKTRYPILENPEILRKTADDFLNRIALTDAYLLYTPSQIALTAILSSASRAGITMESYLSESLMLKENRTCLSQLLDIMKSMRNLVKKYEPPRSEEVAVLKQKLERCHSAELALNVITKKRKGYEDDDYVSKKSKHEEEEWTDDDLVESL
Sequence of CDK7/CycH/MAT1 (P51948 whole entry partner): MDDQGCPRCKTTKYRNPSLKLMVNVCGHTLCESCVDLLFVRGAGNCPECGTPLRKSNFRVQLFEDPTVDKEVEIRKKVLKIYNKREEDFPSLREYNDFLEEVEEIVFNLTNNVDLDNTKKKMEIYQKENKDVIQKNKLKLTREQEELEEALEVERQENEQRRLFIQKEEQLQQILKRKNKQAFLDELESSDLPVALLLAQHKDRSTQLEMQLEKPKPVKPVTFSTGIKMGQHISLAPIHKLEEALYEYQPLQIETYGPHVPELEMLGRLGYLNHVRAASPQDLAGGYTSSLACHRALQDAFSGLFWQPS

In general, IC50 refers to the midpoint of a concentration-inhibition curve. With `C=CC(=O)Nc1ccc(C(=O)N2CC[C@@H](Nc3ncc4ccccc4n3)C2)cc1` [Example 26, (R)-N-(4-(3-(quinazolin-2-ylamino)pyrrolidine-1-carbonyl)phenyl)acrylamide], the IC50 on CDK12 wt/CycK was no more than 100 nM; at CDK12 it was less than 100 nM.

As for `CCC(=O)Nc1ccc(C(=O)N2CC[C@@H](Nc3ncc4ccccc4n3)C2)cc1` [Example 44, (R)—N-(4-(3-(quinazolin-2-ylamino)pyrrolidine-1-carbonyl)phenyl)propionamide], the IC50 at CDK12 wt/CycK and against CDK12 was 100 to 1000 nM in each case.

As for `C=CC(=O)N(C)c1ccc(C(=O)N2CC[C@@H](Nc3ncc4ccccc4n3)C2)cc1` [Example 74, (R)—N-methyl-N-(4-(3-(quinazolin-2-ylamino)pyrrolidine-1-carbonyl)phenyl)acrylamide], the IC50 against CDK2/CycA2 and on CDK2 was 1000 to 10000 nM each time.

In the case of `C=CC(=O)Nc1ccc(C(=O)N2CC[C@@H](Nc3ncc4ccc(C#N)cc4n3)C2)cc1` [Example 37, (R)—N-(4-(3-((7-cyanoquinazolin-2-yl)amino)pyrrolidine-1-carbonyl)phenyl)acrylamide], the IC50 is no more than 100 nM on CDK12 wt/CycK and less than 100 nM on CDK12.

`CN(C)C/C=C/C(=O)Nc1ccc(C(=O)Nc2cccc(Nc3ncc(Cl)c(-c4c[nH]c5ccccc45)n3)c2)cc1` [THZ1]: the IC50 in test [1] was less than 200 nM.

In the case of `C=CC(=O)Nc1ccc(C(=O)N2CC[C@@H](Nc3ncc4ccc(OC)cc4n3)C2)cc1` [Example 34, (R)-N-(4-(3-((7-methoxyquinazolin-2-yl)amino)pyrrolidine-1-carbonyl)phenyl)acrylamide], the figures for the IC50 at CDK12 wt/CycK and against CDK12 were no more than 100 nM and less than 100 nM, respectively.

In the case of `C=CC(=O)Nc1ccc(C(=O)N2CC[C@@H](Nc3ncc4cc(F)ccc4n3)C2)cc1` [Example 28, (R)-N-(4-(3-((6-fluoroquinazolin-2-yl)amino)pyrrolidine-1-carbonyl)phenyl)acrylamide], the IC50 is no more than 100 nM against CDK12 wt/CycK and less than 100 nM against CDK12.

`C=CC(=O)Nc1ccc(C(=O)N2CC[C@@H](Nc3ncc4ccc(=O)n(C(C)C)c4n3)C2)cc1` [Example 43, (R)—N-(4-(3-((8-isopropyl-7-oxo-7,8-dihydropyrido[2,3-d]pyrimidin-2-yl)amino)pyrrolidine-1-carbonyl)phenyl)acrylamide]: the IC50 against CDK12 wt/CycK is no more than 100 nM; against CDK12, less than 100 nM.

With `C=CC(=O)Nc1ccc(C(=O)N2CC[C@@H](Nc3ncc4ccccc4n3)C2)cc1Cl` [Example 88, (R)—N-(2-chloro-4-(3-(quinazolin-2-ylamino)pyrrolidine-1-carbonyl)phenyl)acrylamide], the IC50 against CDK12 wt/CycK was no more than 100 nM; against CDK2/CycA2, 1000 to 10000 nM; against CDK2, 1000 to 10000 nM; against CDK12, less than 100 nM.

As to `C=CC(=O)Nc1ccc(C(=O)N2CC[C@@H](Nc3ncc4ccccc4n3)C2)cc1C` [Example 72, (R)—N-(2-methyl-4-(3-(quinazolin-2-ylamino)pyrrolidine-1-carbonyl)phenyl)acrylamide], the concentration for half-maximal inhibition (IC50) on CDK12 wt/CycK is no more than 100 nM; on CDK7/CycH/MAT1, 1000 to 10000 nM; on CDK2/CycA2, 1000 to 10000 nM; at CDK2, 1000 to 10000 nM; at CDK12 it was less than 100 nM.

For `C=CC(=O)Nc1ccc(C(=O)N2CC[C@@H](Nc3ncc4ccc(S(C)(=O)=O)cc4n3)C2)cc1` [Example 33, (R)-N-(4-(3-((7-(methylsulfonyl)quinazolin-2-yl)amino)pyrrolidine-1-carbonyl)phenyl)acrylamide], the half-inhibitory concentration (IC50) on CDK12 wt/CycK was no more than 100 nM; against CDK12, less than 100 nM.

For `C=CC(=O)Nc1ccc(C(=O)N2CC[C@@H](Nc3ncc4ccccc4n3)C2)cc1F` [Example 62, (R)—N-(2-fluoro-4-(3-(quinazolin-2-ylamino)pyrrolidine-1-carbonyl)phenyl)acrylamide], the IC50 is no more than 100 nM against CDK12 wt/CycK and less than 100 nM on CDK12.
